Values of other authors as cited in patent publication US20090048181A1, “Combination therapy with glatiramer acetate and n-acetylcysteine for the treatment of multiple sclerosis” (priority 2004, published 2009).

Key:
[1] = system: EAE, a murine model of multiple sclerosis
[2] = system: TNF-α; settings: ten human patients suffering from multiple sclerosis; efficacy could not be ascertained
[3] = system: relapsing-remitting multiple sclerosis; settings: daily subcutaneous injections, 20 mg/injection

CC(=O)N[C@@H](CS)C(=O)O [N-acetylcysteine]
induction of EAE ([1]; SJL/J mice, oral administration): attenuated
effect in animals with established EAE ([1]; established EAE, correlated with treatment in a dose-related manner): improvement
TNF-α level [2]: elevation

L-glutamic acid polymer with L-alanine, L-lysine and L-tyrosine, acetate (salt) [glatiramer acetate]
appearance of "black holes" [3]: reduce
appearance of new lesions by magnetic resonance imaging (MRI) [3]: reduce
progression of disability [3]: reduce
relapse rates [3]: reduce
